For one compound, IC50, inhibition and Kd results are on record in article PMC11134387, “Cancer-Stem-Cell Phenotype-Guided Discovery of a Microbiota-Inspired Synthetic Compound Targeting NPM1 for Leukemia” (JACS Au, 2024).

The subject of assay [1] is primary CD34+ cells from healthy donors. Briefly: CFU-E colony-forming unit assay, healthy donors. It is filed as cell-based. Conditions: Homo sapiens. The procedure:
Considering the inhibitory capacity of UCM-13369 on AML cell lines (shown in Figure 3A), the therapeutic potential was assessed in primary CD34+ cells from AML patients. Two ex vivo models were used from AML patients and healthy donors: CD34+ liquid HSC (hematopoietic stem cell) culture as a short-term model and CFU-E (colony-forming unit–erythroid) as a midterm model.
The test compound was diluted in PBS. […]
Primary cells. 1x10^6/mL total mononuclear bone marrow cells (as source of CD34+ HSCs) of healthy donors and AML patients were used. They were cultured using Stem SpanTM supplement with pencillin/streptomycin (500 U/ml), TPO (10 µg/mL), SCF (10 µg/mL), FLT3 (10 µg/mL), IL-6 (10 µg/mL) and IL-3 (10 µg/mL). After 24 h fresh medium was added. After 72 h in maintenance cells were ready to start the assays. All cells wer e maintained at 37 °C in a humidified incubator in an atmosphere of 5% CO2.
(§1) Colonospheres, mamospheres and colony formation unit assays. 30.000 cells per well of MCF-7 cells (mamos pheres), HCT-116 cells (colonospheres) and CD34+ cells from patients (colony formation units) were seeded in serum free non- adherent medium or […]
(§2) MethoCult (Stem Cell). […]

Assay [2] relates to HCT-116-derived colonospheres. Briefly: Formation of HCT-116-derived colonospheres (CSC tumorspheres). Conditions: Homo sapiens, HCT-116; @5 µM (footnote d); read-out: Inhibition of tumorsphere formation (%) HCT-116. It is filed as cell-based. The procedure: (BD Biosciences, Franklin Lakes, NJ, USA). All cells were maintained at 37 °C in a humidified incubator in an atmosphere of 5% CO2, and passaged every 2–3 days.
Additionally, they were cultured using RPMI media (Gibco/Life Technologies; Grand […]
as §1, §2

A further assay concerns OCI-AML3 (NPM1 C+). Description: Cell viability dose-response in AML cell line (NPM1 C+). It is filed as cell-based. Conditions: Homo sapiens, OCI-AML-3; OCI-AML3, 48 h. The text has this:
One of the most paradigmatic diseases with critical involvement of CSCs is AML. Among the AML stem cell population, CD34+/CD38- are the only ones capable of inducing leukemia in vivo.[27] […] We focused on proteins that disappeared completely after treatment with the compound and whose concentration could be quantified in untreated samples. According to this profile, 340 proteins, including targets related with stemness and cancer, were identified (see Supplementary Excel file). Among them, nucleophosmin 1 (NPM1) especially attracted our attention, as it is one of the most common mutated proteins in AML.[28] To support that the inhibitory capacity of UCM-13369 observed in CSC cells (see Table S1) is mediated by NPM1, the compound was tested on OCI-AML3 and MOLM13 cell lines, as in vitro AML models bearing mutant (NPM1 C+) and wild-type (WT) protein, respectively.
The test compound was diluted in PBS.

A further assay concerns the target T1, NPM1 C-end WT (Homo sapiens, UniProt P06748).
T1 construct: the C-end domain (residues 225- 294); 6xHis (N); made in house; host or cells: E. coli BL21(DE3)
Description: Isothermal titration calorimetry, NPM1 C-end WT. It is filed as binding. The settings on record: ITC, 25 °C. From the text:
To confirm a direct interaction of UCM-13369 with NPM1 and to address which domain of the protein would be responsible for binding the compound, pure protein samples of the pentameric N-end domain of NPM1, along with the C-terminal DNA-binding domains of WT and mutant NPM1 C+, were used in calorimetry assays. […] This is indicative of a lower diversity in the chemical environment of amide protons consistent with the previously reported protein unfolding.[29] […] On the other hand, the pentameric construct of the NPM1 N-end, which lacks the AML-related region, yielded a much lower binding affinity (KD ca. 100 μM range, Figure 3D).
ITC experiments were performed in a Nano ITC Low Volume (TA Instruments) at 25 °C. […]
The purity of the protein samples was checked by SDS–PAGE analysis (Figure S3) and protein quantification was performed using the Bradford protein assay.5 NPM molar concentration was expressed as the pentameric form for NPM1 WT N-end and as a monomer for NPM1 C-end WT and mutant. […]
After extraction with acetonitrile and acidification, samples were desalted and concentrated with C18 tips. Mass spectra were recorded in a Hybrid Quadrupole-Orbitrap™ Mass Spectrometer (Thermo Scientific, Waltham, Massachusetts, USA)
A general note: In ITC the heat of successive injections is recorded.

T1 sequence (P06748 225-294): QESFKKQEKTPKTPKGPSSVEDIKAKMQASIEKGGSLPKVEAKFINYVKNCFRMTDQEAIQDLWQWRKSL

One may read the IC50 as the concentration at which inhibition is half-maximal. Low values mean inhibition by little substance, high ones a need for much substance. Broadly, the inhibition is the change of the read-out against control, counted positive when it falls. One may read the Kd as the constant that tells how readily two partners part at equilibrium. For the compound `COc1ccc(C2Cc3[nH]c4ccccc4c3C(CCNCC3CC3)C2N)cc1` (stereo not shown) [4b, 4-{2-[(Cyclopropylmethyl)amino]ethyl}-2-(4-methoxyphenyl)-2,3,4,9-tetrahydro-1H-carbazol-3-amine], the IC50 stood at 1.73 µM in assay [1] and 7.26 µM in the assay on OCI-AML3 (NPM1 C+). Besides, the inhibition at 5 µM in assay [2] came out at 100%. Further, at NPM1 C-end WT, the equilibrium dissociation constant (Kd) came out at 37 µM.
